Results from patent US10392422B2, “Macrocyclic broad spectrum antibiotics” (priority 2014, dated 2019).
≈ marks a conversion by molar mass, not a printed value. Like-named read-outs stand apart in the source and are kept apart here.

Tests used:
[1] = tested on: Methicillin Resistant Staphylococcus aureus strain USA 300 (NRS384); test: MIC, broth micro-dilution technique (CLSI); type: cell-based; conditions: for MIC: Staphylococcus aureus, 22 h, read-out: MIC (μg/mL) S. aureus
Protocol: (§1) In vitro antimicrobial activity of each compound was determined by measuring minimal inhibitor concentrations (MICs) using the broth micro-dilution technique as approved by the Clinical and Laboratory Standards Institute (CLSI) (Methods for Dilution Antimicrobial Susceptibility Tests for Bacteria that Grow Aerobically; Approved Standard—Eighth Edition. CLSI document M07-A8. Wayne, Pa.: Clinical and Laboratory Standards; 2009). Antibacterial activity was measured against three strains of bacteria: a Methicillin Resistant Staphylococcus aureus strain USA 300 (NRS384); a MRSA COL (NRS100), another Methicillin Resistant Staphylococcus aureus strain; and a strain of Escherichia coli MC4100 harboring the IMP4213, which results in increased outer-membrane permeability (B Martin and Silhavy T. Imp/OstA is required for cell envelope biogenesis in Escherichia coli. (2002) Molecular Microbiology, 45(5), 1289-1302). Cells were inoculated onto plates of Trypyticase Soy Agar or Luria Agar respectively and grown at 35° C. for 20 hours. Inocula suspensions were prepared by scraping cells into 1 ml of testing media (cation adjusted Mueller Hinton Broth supplemented with 0.002% v/v Tween-80) and diluting to a final OD600 nm of 0.01.
(§2) Test compounds were prepared in DMSO at a concentration of 10 mg/ml. These compound stocks were diluted into testing media at a concentration of 64 μg/ml and serial 2-fold dilutions were made in the same media, in 96-well U bottom microtiter dishes, for a total of 10 compound concentrations (Table 1). In modified protocols (Table 2), compound stocks were diluted into testing media at a concentration of 4 μg/mL and serial 2-fold dilutions were made in the same media, in 96-well U bottom microtiter dishes, for a total of 10 compound concentrations. Inocula suspensions were added to the 2-fold serial dilutions of test compounds to a final density of OD OD600 nm of 0.0005 and incubated at 35° C. for 22 hours. […] The results from the protocol starting from a concentration of 64 µg/mL are listed in Table 1 and the results from the modified protocol are shown in Table 2.

[2] = tested on: Escherichia coli MC4100 harboring the IMP4213; test: MIC, broth micro-dilution technique (CLSI); type: cell-based; conditions: 35° C., 22 hours; for MIC: Escherichia coli, 22 h, read-out: MIC (μg/mL) E. coli, Table 1 protocol: serial 2-fold dilutions starting from 64 μg/ml; for MIC (μg/mL) E. coli: Table 1 protocol: serial 2-fold dilutions starting from 64 μg/ml
Protocol: as §1, §2

[3] = Table 1 protocol: serial 2-fold dilutions starting from 64 μg/ml, 35° C., 22 hours

Row | Compound | MIC [1] [µg/mL] | MIC [2] [µg/mL] | further results
1 | CCCCCCCC(=O)NCCC(=O)N[C@@H](CCCCN)C(=O)N(C)[C@@H]1C(=O)N[C@@H](C)C(=O)N[C@H](C(=O)N[C@@H](C)C(=O)C2CO2)Cc2ccc(O)c(c2)-c2cc1ccc2O (some centres unmarked) [Compound 101] | 64 (≈ 76.6 µM) | > 64 | –
2 | CCCCCCCC(=O)NCCC(=O)N[C@@H](CCCCN)C(=O)N(C)[C@@H]1C(=O)N[C@@H](C)C(=O)N[C@H](C(=O)N[C@@H](C)C(=O)C2CO2)Cc2ccc(O)c(c2)-c2cc1ccc2O (some centres unmarked) [Compound 102] | – | – | MIC (μg/mL) S. aureus [1, 3]: 64 µg/mL (≈ 76.6 µM); MIC (μg/mL) E. coli [2]: >64 µg/mL
3 | CCCCCCCC(=O)N[C@@H](CCCCN)C(=O)N(C)[C@@H]1C(=O)N[C@@H](C)C(=O)N[C@H](C(=O)N[C@@H](C)C(=O)C2CO2)Cc2ccc(O)c(c2)-c2cc1ccc2O (some centres unmarked) [Compound 103] | – | 23 (≈ 30.1 µM) | MIC [1, 3]: 45 µg/mL (≈ 58.8 µM)
4 | CC1OC1C(=O)[C@H](C)NC(=O)[C@@H]1Cc2ccc(O)c(c2)-c2cc(ccc2O)[C@H](N(C)C(=O)[C@H](CCCCN)NC(=O)c2ccc(-c3ccc(Cl)cc3)cc2)C(=O)N[C@@H](C)C(=O)N1 (some centres unmarked) [Compound 105] | – | 8 (≈ 9.22 µM) | MIC [1, 3]: 4 µg/mL (≈ 4.61 µM)
5 | CC1OC1C(=O)[C@H](C)NC(=O)[C@@H]1Cc2ccc(O)c(c2)-c2cc(ccc2O)[C@H](N(C)C(=O)[C@H](CCCCN)NC(=O)c2ccc(-c3ccc(Cl)cc3)cc2)C(=O)N[C@@H](C)C(=O)N1 (some centres unmarked) [Compound 106] | – | – | MIC (μg/mL) S. aureus [1, 3]: 5.7 µg/mL (≈ 6.57 µM); MIC (μg/mL) E. coli [2]: 11 µg/mL (≈ 12.7 µM)
6 | CCCCCCCC(=O)NCCC(=O)N[C@@H](CCCCN)C(=O)N(C)[C@@H]1C(=O)N[C@@H](C)C(=O)N[C@H](C(=O)N[C@@H](C)C(=O)CCl)Cc2ccc(O)c(c2)-c2cc1ccc2O [Compound 107] | 64 (≈ 76 µM) | > 64 | –
7 | C[C@H](NC(=O)[C@@H]1Cc2ccc(O)c(c2)-c2cc(ccc2O)[C@H](N(C)C(=O)[C@H](CCCCN)NC(=O)c2ccc(-c3ccc(Cl)cc3)cc2)C(=O)N[C@@H](C)C(=O)N1)C(=O)CCl [Compound 108] | 4 (≈ 4.65 µM) | 8 (≈ 9.3 µM) | –
8 | C[C@H](NC(=O)[C@@H]1Cc2ccc(O)c(c2)-c2cc(ccc2O)[C@H](N(C)C(=O)[C@H](CCCCN)NC(=O)c2ccc(-c3ccc(Cl)cc3)cc2)C(=O)N[C@@H](C)C(=O)N1)C(=O)COC(=O)c1ncccn1 [Compound 122] | 1.4 (≈ 1.48 µM) | 32 (≈ 33.8 µM) | –
9 | CC(=O)OCC(=O)[C@H](C)NC(=O)[C@@H]1Cc2ccc(O)c(c2)-c2cc(ccc2O)[C@H](N(C)C(=O)[C@H](CCCCN)NC(=O)c2ccc(-c3ccc(Cl)cc3)cc2)C(=O)N[C@@H](C)C(=O)N1 [Compound 123] | 3.2 (≈ 3.62 µM) | 32 (≈ 36.2 µM) | –
10 | COC(=O)[C@@H]1CCCN1CC(=O)[C@H](C)NC(=O)[C@@H]1Cc2ccc(O)c(c2)-c2cc(ccc2O)[C@H](N(C)C(=O)[C@H](CCCCN)NC(=O)c2ccc(-c3ccc(Cl)cc3)cc2)C(=O)N[C@@H](C)C(=O)N1 [Compound 126] | 32 (≈ 33.6 µM) | > 64 | –
11 | CC[C@H](NC(=O)[C@@H]1Cc2ccc(O)c(c2)-c2cc(ccc2O)[C@H](N(C)C(=O)[C@H](CCCCN)NC(=O)c2ccc(-c3ccc(Cl)cc3)cc2)C(=O)N[C@@H](C)C(=O)N1)C(C)=O [Compound 127] | > 64 | 64 (≈ 76.2 µM) | –
12 | CCCCCCCC(=O)NCCC(=O)N[C@@H](CCCCN)C(=O)N(C)[C@@H]1C(=O)N[C@@H](C)C(=O)N[C@H](CO)Cc2ccc(O)c(c2)-c2cc1ccc2O [Compound 153] | – | – | MIC [1, 3]: 130 µg/mL (≈ 179 µM)
13 | CCCCc1ccc(-c2ccc(C(=O)NC[C@@H](C)C(=O)N[C@@H](CCCCN)C(=O)N(C)[C@@H]3C(=O)N[C@@H](C)C(=O)N[C@H](C(=O)N[C@@H](C)C(=O)N4CCC[C@H]4C(N)=O)Cc4ccc(O)c(c4)-c4cc3ccc4OC(=O)OCC(C)C)cc2)cc1 [Compound 184] | 2 (≈ 1.77 µM) | – | –
14 | CCCCc1ccc(-c2ccc(C(=O)N[C@@H](CN)C(=O)N(C)[C@@H]3C(=O)N[C@@H](C)C(=O)N[C@H](C(=O)O)Cc4ccc(OCCN)c(c4)-c4cc3ccc4OCCN)cc2)cc1 [Compound 292] | – | 0.063 (≈ 0.0766 µM) | –
15 | CCCCCCCCCCCCCC(=O)N[C@@H](CN)C(=O)N(C)[C@@H]1C(=O)N[C@@H](C)C(=O)N[C@H](C(=O)N[C@@H](C)B2O[C@@H]3C[C@@H]4C[C@@H](C4(C)C)[C@]3(C)O2)Cc2ccc(OCCN)c(c2)-c2cc1ccc2OCCN [Compound 318] | – | 0.063 (≈ 0.0629 µM) | –
